Experimental data as given in US20090326007A1, “Compounds and methods for modulating sir2 protein activity” (priority 2007, published 2009).
Entries after “also recorded” stand apart in the source; their conditions may differ. Read-outs that look alike come from different tables or passages of the source. Each block holds one compound with its values, some of them ahead of it.

What was measured:
[1] = test system: trypsin; experiment: Control for inhibition of the trypsin assay developer; type: biochemical
Excerpt: These compounds were not pursued further.

[2] = target: T1, Hst2 (Saccharomyces cerevisiae, UniProt P53686); experiment: IC50 determination, fluorigenic deacetylase assay, Hst2
T1 sequence (P53686 1-294): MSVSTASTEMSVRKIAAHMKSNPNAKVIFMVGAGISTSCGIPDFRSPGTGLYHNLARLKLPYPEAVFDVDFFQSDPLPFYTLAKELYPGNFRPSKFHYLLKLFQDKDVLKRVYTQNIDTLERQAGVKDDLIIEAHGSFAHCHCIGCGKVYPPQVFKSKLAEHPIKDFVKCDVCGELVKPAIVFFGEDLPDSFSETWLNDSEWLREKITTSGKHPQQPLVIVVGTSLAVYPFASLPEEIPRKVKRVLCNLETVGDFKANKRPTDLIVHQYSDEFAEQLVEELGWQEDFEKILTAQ
Method: (§3) IC50 Determination. […] The dose-response curves were then fit to one-site competition or sigmoidal-dose response curves as appropriate in [sequence] PRISM (GraphPad Software, La Jolla, Calif.) and the IC50 was determined. Three independent IC50 measurements were performed for each compound and the average and standard deviation are reported.
(§4) The resulting deacetylase activity for the three experiments was averaged and reported as a percentage relative to control wells containing no inhibitor.

[3] = target: Hst2 (1-294) (Saccharomyces cerevisiae, UniProt P53686); experiment: High throughput screen for Hst2 effectors in the presence of nicotinamide (fluorimetric); settings: Table 3, activators, nicotinamide present
Sequence of Hst2 (1-294) (P53686 1-294): as above
Method: High Throughput Screening (HTS). A high throughput screening protocol based on the SIRT1 Fluorimetric Activity Assay/Drug Discovery Kit was developed (BIOMOL International, Inc., Plymouth Meeting, Pa.). […] One hundred nanoliters of either a DMSO control or a compound from the small molecule screening library was added to each well by pinning. […] After 45 minutes, each plate was read on a fluorescence plate reader at an excitation wavelength of 360 nm and an emission wavelength of 460 nm. […] The fluorescence signal from each well was normalized to the DMSO controls on each 384-well plate and compared to a DMSO control population based on the following equation:
where χ is the fluorescence signal of the well, μ is the mean of the control (DMSO) population and σ is the standard deviation of the control population. […]

[4] = target: T1, Hst2; experiment: Reversibility assay; type: biochemical; settings: preincubation at 10x IC50, 100-fold dilution
Method: Reversibility Assay. Each of the inhibitor scaffolds identified in the HTS was tested to determine whether they were reversible, slowly reversible or irreversible inhibitors of Hst2. The reversibility of each compound was identified using the fluorigenic assay described herein.
To aid in the determination of the mechanism of inhibition for each newly identified inhibitor and to assay reversibly of inhibitor binding to the enzyme, it was tested whether or not inhibitor binding to the Sir2 enzyme was rapidly reversible, slowly reversible or irreversible. […] Then, the enzyme was diluted 100-fold into reaction wells with both substrates, and the amount of product formation over time was monitored (FIG. 2).

[5] = target: T2, yHst2 I117V mutant (Saccharomyces cerevisiae, UniProt P53686, I117V); experiment: Kinetic assay, deacetylase fluorescent activity assay kit, I117V mutant; type: biochemical
T2 construct: Point mutations in yHst2 (1-294) were generated from the pRSET-A plasmid; His6 (N); made in house
T2 sequence (P53686 1-294 I117V): as the sequence (P53686 1-294) above, with I117V counted along it
Excerpt: (§1) Protein Preparation, Crystallization and Structure Determination.
(§2) Kinetic Assays. […] Data taken in triplicate were fitted to the equation l/v=(Km/Vmax)(1/[S])+1/Vmax, using a root mean least squares approach in the form of a double reciprocal Lineweaver-Burk plot where the x-intercept is equal to −l/Km. […] The slopes of the Dixon Plot were replotted versus 1/[NAD^+], and the slope of the corresponding line was set equal to Km/(Vmax*Ki), in order to calculate Ki.

[6] = target: T3, yHst2 I117F mutant (Saccharomyces cerevisiae, UniProt P53686, I117F); experiment: Kinetic assay, deacetylase fluorescent activity assay kit, I117F mutant; type: biochemical
T3 construct: Point mutations in yHst2 (1-294) were generated from the pRSET-A plasmid; His6 (N); made in house
T3 sequence (P53686 1-294 I117F): as the sequence (P53686 1-294) above, with I117F counted along it
Excerpt: as §1, §2

[7] = target: T4, human SIRT2 (Homo sapiens, UniProt Q8IXJ6); experiment: Inhibition assay against human SIRT2 (fluorigenic); settings: for remaining activity at 100 µM: read-out: percent of residual enzyme activity, SIRT2
T4 sequence (Q8IXJ6 1-352 isoform Q8IXJ6-2): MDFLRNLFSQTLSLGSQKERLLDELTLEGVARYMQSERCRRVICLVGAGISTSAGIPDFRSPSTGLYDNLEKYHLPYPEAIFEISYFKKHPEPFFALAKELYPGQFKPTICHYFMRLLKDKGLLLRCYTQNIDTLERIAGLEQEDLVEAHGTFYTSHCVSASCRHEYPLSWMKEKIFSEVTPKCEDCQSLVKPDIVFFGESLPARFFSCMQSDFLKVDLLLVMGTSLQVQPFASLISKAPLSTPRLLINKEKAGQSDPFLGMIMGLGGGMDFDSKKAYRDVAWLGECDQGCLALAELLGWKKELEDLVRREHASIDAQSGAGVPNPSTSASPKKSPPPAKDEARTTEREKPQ
Method: (§5) Human recombinant SIRT3 was purchased from Enzo Life Sciences.
(§6) Inhibition Assay Against Human SIRT2 and SIRT3. […] Two independent measurements were performed for each compound and the average and standard deviation are reported.

[8] = target: T1, Hst2; experiment: Competition assay (inhibition mode versus NAD+ and acetyl-lysine substrate); type: biochemical
Method: Competition Assay. […] The fluorigenic assay described above was used with a fixed enzyme concentration of 1 μM. When competition with NAD^+ was being tested, the FLUOR DE LYS-SIRT1 deacetylase substrate was held at a constant concentration of 100 μM and the NAD^+ was titrated from ⅓-5× KmNAD+ (5-80 μM). […] The inhibitors were titrated from ˜½-several times their estimated Ki as indicated. The reaction time was 15 minutes, and each condition was tested in duplicate. The Km, kcat and kcat/Km values were determined by direct fit of the data in SIGMAPLOT (Systat Software, Point Richmond, Calif.) to the Michealis-Menten equation. The Ki and Kis (the slope and intercept inhibition constants, respectively) and the competition type were also determined by a direct fit in SIGMAPLOT to both partial and full competitive, noncompetitive, uncompetitive and mixed competition models. Best-fit models were determined by several statistical methods including R^2, AICs and Sy.x as well as empirical evaluation of α and β values.
To determine the mechanism of inhibition of the compounds identified by HTS and to gain insight as to where these compounds may bind to the enzyme, inhibition modes were determined by varying each of the substrates with the other maintained at a fixed, saturating concentration (Table 11).

[9] = target: T5, full-length human SIRT1 (Homo sapiens, UniProt Q96EB6); experiment: IC50 determination, fluorigenic deacetylase assay, FL SIRT1; settings: read-out: SIRT1 IC50; Table 5; 240 μM NAD+, 200 μM substrate, 1 μM FL SIRT1, 15 min
T5 sequence (Q96EB6 1-747): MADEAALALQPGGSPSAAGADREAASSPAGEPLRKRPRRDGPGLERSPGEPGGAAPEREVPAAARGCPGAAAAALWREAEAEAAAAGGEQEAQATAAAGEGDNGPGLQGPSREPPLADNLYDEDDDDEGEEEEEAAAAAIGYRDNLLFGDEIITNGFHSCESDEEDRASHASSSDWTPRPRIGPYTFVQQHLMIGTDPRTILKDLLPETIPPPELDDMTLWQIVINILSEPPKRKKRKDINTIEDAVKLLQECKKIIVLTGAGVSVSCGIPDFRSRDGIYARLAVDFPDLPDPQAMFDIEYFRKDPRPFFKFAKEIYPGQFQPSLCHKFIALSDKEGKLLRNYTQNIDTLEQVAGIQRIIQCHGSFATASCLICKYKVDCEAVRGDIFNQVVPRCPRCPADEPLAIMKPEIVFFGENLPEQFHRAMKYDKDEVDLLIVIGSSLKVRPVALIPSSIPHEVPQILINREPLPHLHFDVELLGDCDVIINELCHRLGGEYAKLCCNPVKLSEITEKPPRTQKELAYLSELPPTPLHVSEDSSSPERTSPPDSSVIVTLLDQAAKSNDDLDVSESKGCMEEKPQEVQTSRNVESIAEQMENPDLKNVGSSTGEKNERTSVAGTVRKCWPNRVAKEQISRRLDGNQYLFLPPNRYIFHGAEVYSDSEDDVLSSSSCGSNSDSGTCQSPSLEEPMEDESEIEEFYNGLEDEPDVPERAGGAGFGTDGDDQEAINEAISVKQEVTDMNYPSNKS
Method: Cells were harvested and lysed by sonication in buffer containing 50 mM Tris, pH 7.5, 200 mM NaCl, 5 mM imidizole, 10 mM β-mercaptoethanol (BME) and 0.1 mg/mL PMSF. Soluble FL SIRT1 was purified by Ni-NTA (Qiagen, Valencia, Calif.) in a buffer containing 50 mM Tris, pH 7.5, 300 mM NaCl, 10 mM BME, 5% glycerol and 30-600 mM imidizole followed by SUPERDEX-200 gel filtration in buffer containing 50 mM Tris, pH 7.5, 150 mM NaCl, and 10 mM BME. FL SIRT1 eluted between the 670 kDa and 158 kDa globular protein standards. Since SIRT1 is known to aggregate after several days at 4° C., the protein was aliquoted and frozen at −80° C. for use in fluorigenic assays.
as §3

[10] = target: T1, Hst2; experiment: SAR analysis, fluorigenic assay at 50 and 500 μM; type: biochemical; settings: Table 7, 500 μM compound, relative to control; read-out: % Activity 500 μM
Excerpt: Structure Activity Relationship (SAR) Analysis.

[11] = target: T6, human SIRT3 (Homo sapiens, UniProt Q9NTG7); experiment: Inhibition assay against human SIRT3 (fluorigenic)
T6 sequence (Q9NTG7 1-399): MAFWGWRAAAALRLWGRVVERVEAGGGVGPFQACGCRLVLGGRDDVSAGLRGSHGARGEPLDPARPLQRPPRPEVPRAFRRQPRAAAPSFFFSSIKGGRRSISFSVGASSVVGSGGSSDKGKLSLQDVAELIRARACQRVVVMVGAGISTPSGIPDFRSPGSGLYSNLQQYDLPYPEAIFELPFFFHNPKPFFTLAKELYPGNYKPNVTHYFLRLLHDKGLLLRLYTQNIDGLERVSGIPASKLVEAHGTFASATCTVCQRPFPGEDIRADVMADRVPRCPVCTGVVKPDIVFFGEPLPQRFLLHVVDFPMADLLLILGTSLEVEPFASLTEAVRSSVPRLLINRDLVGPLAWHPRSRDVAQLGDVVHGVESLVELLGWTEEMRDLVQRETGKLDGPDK
Method: as §5, §6

[12] = target: T1, Hst2
Method: as §3, §4

[13] = target: T7, wild-type yHst2 (Saccharomyces cerevisiae, UniProt P53686); experiment: Kinetic assay, deacetylase fluorescent activity assay kit, wild-type enzyme; type: biochemical; settings: read-out: Km for NAD+
T7 construct: The 64-residue C-terminal deletion construct of yHst2 (residues 1-294) and point mutants were purified; His6 (N); made in house
T7 sequence (P53686 1-294): as the sequence (P53686 1-294) above
Excerpt: as §2

[14] = target: T8, yHst2 D118N mutant (Saccharomyces cerevisiae, UniProt P53686, D118N); experiment: Kinetic assay, deacetylase fluorescent activity assay kit, D118N mutant; type: biochemical
T8 construct: Point mutations in yHst2 (1-294) were generated from the pRSET-A plasmid; His6 (N); made in house
T8 sequence (P53686 1-294 D118N): as the sequence (P53686 1-294) above, with D118N counted along it
Excerpt: as §1, §2

[15] = read-out: Hst2 IC50, Table 5, 160 μM NAD+, 100 μM substrate, 1 μM Hst2, 15 min

Compound: (Pyrido[2,3-a]5-nitropyrrolo[3,4-c]carbazole-5,7(6H)-dione) (cyclopentadienyl)monocarbonyl ruthenium [Compound 16b]
inhibition of trypsin [1]: did not inhibit trypsin
IC50 ([2]; Table 4, Hst2): 24 ± 16 µM
IC50 values (range in words) ([2]; Table 5): low micromolar
IC50 [2, 15]: 24 ± 16 µM

Compound: Pyrido[2,3-a]4-nitropyrrolo[3,4-c]carbazole-5,7(6H)-dione) (cyclopentadienyl) monocarbonyl ruthenium [Compound 16a]
inhibition of trypsin [1]: did not inhibit trypsin
IC50 ([2]; Table 4, Hst2): 36 ± 12 µM
IC50 values (range in words) ([2]; Table 5): low micromolar
IC50 [2, 15]: 36 ± 12 µM

Fold Activation [3]: 2.2 Fold
Compound: CC1(C)CC(=O)C2=C(C1)NC1=C(C(=O)CC(C)(C)C1)C2c1cccc(F)c1

Compound: NC(=O)c1cccnc1 [Nicotinamide (1), Nicotinamide, reference compound]
slope of progress curve with respect to the enzyme control [4]: 30%
decrease of Kii for nicotinamide over wild-type enzyme ([5]; I117V mutant versus wild-type): ~2.5 fold
increase of Kii for nicotinamide over wild-type enzyme ([6]; I117F mutant versus wild-type): ~6 fold
remaining activity at 100 µM [7]: 26 ± 1.4%

kcat ([8]; substrate NAD+ varied): 0.0137 ± 0.00233 s⁻¹
Inhibition Mechanism ([8]; substrate NAD+ varied, acetyl-lysine substrate 100 μM): fully mixed
kcat ([8]; substrate acetyl-lysine varied): 0.0167 ± 0.0033 s⁻¹
α (mixed inhibition model) ([8]; with respect to NAD+): 2.6
IC50 [9]: 570 ± 200 µM
activity at 500 µM [10]: 5%
inhibitory activity against human SIRT3 (in words) ([11]; 50 or 100 μM compound): only weak inhibitory activity
remaining activity at 100 µM ([11]; read-out: percent of residual enzyme activity, SIRT3): 96.4 ± 0.5%
IC50 lower than that of compound 15b [12]: about 2 fold
inhibitory activity against human SIRT2 (in words) ([7]; 50 or 100 μM compound): only weak inhibitory activity
remaining activity at 100 µM [7]: 92.1 ± 1.5%
Compound: COCC#CC1c2cc(O)c(OC)cc2CCN1C (stereo not shown) [Compound 15a, 6-Methoxy-1-(3-methoxy-prop-1-ynyl)-2-methyl-1,2,3,4-tetrahydro-isoquinolin-7-ol]
Inhibition Mechanism ([8]; substrate acetyl-lysine varied, NAD+ 160 μM): fully non-competitive; also recorded: NC (full)

Compound: NC(=O)c1ccc[n+]([C@@H]2O[C@H](COP(=O)([O-])OP(=O)(O)OC[C@H]3O[C@@H](n4cnc5c(N)ncnc54)[C@H](O)[C@@H]3O)[C@@H](O)[C@H]2O)c1 [NAD^+]
Km ([5]; I117V mutant, read-out: Km for NAD+): 25.5 µM
increased Km for NAD+ compared to wild-type enzyme ([6]; I117F mutant versus wild-type): less than 2 fold
Km ([6]; I117F mutant, read-out: Km for NAD+): 25.8 µM
Km [13]: 16.1 µM
increase of Km for NAD+ over wild-type ([14]; D118N mutant versus wild-type): more than 28 fold
Km ([14]; D118N mutant, read-out: apparent Km for NAD+): 454 µM
